# Key:
# Type in all cases: biochemical
# MAP3K4_Cascade = experiment: mobility shift assay; conditions: 10 μM
# PIM 1 = molecular target: T1, PIM 1 (Homo sapiens, UniProt P11309); experiment: mobility shift assay
# T1 construct: purchased Carna Biosciences
# CDK3/CycE1 = molecular target: T2, CDK3/CycE1 (Homo sapiens, UniProt Q00526); experiment: mobility shift assay
# T2 construct: purchased Carna Biosciences
# PLK1 = molecular target: T3, PLK1 (Homo sapiens, UniProt P53350); experiment: mobility shift assay
# T3 construct: purchased Carna Biosciences
# CLK1 = molecular target: T4, CLK1 (Homo sapiens, UniProt P49759); experiment: mobility shift assay
# T4 construct: purchased Carna Biosciences
# HPK2 = molecular target: T5, HPK2 (Homo sapiens, UniProt Q9H2X6); experiment: mobility shift assay
# T5 construct: purchased Carna Biosciences
# WNK2 = molecular target: T6, WNK2 (Homo sapiens, UniProt Q9Y3S1); experiment: mobility shift assay
# T6 construct: purchased Carna Biosciences
# CDK5/p25 = molecular target: T7, CDK5/p25 (Homo sapiens, UniProt Q00535); experiment: mobility shift assay
# T7 construct: purchased Carna Biosciences
# MAP3K2_Cascade = molecular target: T8, MAP3K2_Cascade (Homo sapiens, UniProt Q9Y2U5); experiment: mobility shift assay
# T8 construct: purchased Carna Biosciences
# MRCKα = molecular target: T9, MRCKα (Homo sapiens, UniProt Q5VT25); experiment: mobility shift assay
# T9 construct: purchased Carna Biosciences
# IGF1R = molecular target: T10, IGF1R (Homo sapiens, UniProt P08069); experiment: mobility shift assay
# T10 construct: purchased Carna Biosciences
# RON = molecular target: T11, RON (Homo sapiens, UniProt Q04912); experiment: mobility shift assay
# T11 construct: purchased Carna Biosciences
# MST2 = molecular target: T12, MST2 (Homo sapiens, UniProt Q13188); experiment: mobility shift assay
# T12 construct: purchased Carna Biosciences
# PDHK4 = molecular target: T13, PDHK4 (Homo sapiens, UniProt Q16654); experiment: mobility shift assay
# T13 construct: purchased Carna Biosciences
# MNK2 = molecular target: T14, MNK2 (Homo sapiens, UniProt Q9HBH9); experiment: mobility shift assay
# T14 construct: purchased Carna Biosciences
# MAPKAPK5 = molecular target: T15, MAPKAPK5 (Homo sapiens, UniProt Q8IW41); experiment: mobility shift assay
# T15 construct: purchased Carna Biosciences
# TSSK1 = molecular target: T16, TSSK1 (Homo sapiens, UniProt Q9BXA7); experiment: mobility shift assay
# T16 construct: purchased Carna Biosciences
# PKD2 = molecular target: T17, PKD2 (Homo sapiens, UniProt Q9BZL6); experiment: mobility shift assay
# T17 construct: purchased Carna Biosciences
# FGFR4(V550E) = molecular target: T18, FGFR4(V550E) (Homo sapiens, UniProt P22455, V550E); experiment: mobility shift assay
# T18 construct: purchased Carna Biosciences
# FRK = molecular target: T19, FRK (Homo sapiens, UniProt P42685); experiment: mobility shift assay
# T19 construct: purchased Carna Biosciences
# YES = molecular target: T20, YES (Homo sapiens, UniProt P07947); experiment: mobility shift assay
# T20 construct: purchased Carna Biosciences
# Erk5 = molecular target: T21, Erk5 (Homo sapiens, UniProt Q13164); experiment: mobility shift assay
# T21 construct: purchased Carna Biosciences
# ALK(G1202R) = molecular target: T22, ALK(G1202R) (Homo sapiens, UniProt Q9UM73, G1202R); experiment: mobility shift assay
# T22 construct: purchased Carna Biosciences
# ALK(R1275Q) = molecular target: T23, ALK(R1275Q) (Homo sapiens, UniProt Q9UM73, R1275Q); experiment: mobility shift assay
# T23 construct: purchased Carna Biosciences
# CaMK2α = molecular target: T24, CaMK2α (Homo sapiens, UniProt Q9UQM7); experiment: mobility shift assay
# T24 construct: purchased Carna Biosciences
# TRK1 = experiment: mobility shift assay; conditions: 10 μM
# HER2 = molecular target: T25, HER2 (Homo sapiens, UniProt P04626); experiment: mobility shift assay
# T25 construct: purchased Carna Biosciences
# MRCKβ = molecular target: T26, MRCKβ (Homo sapiens, UniProt Q9Y5S2); experiment: mobility shift assay
# T26 construct: purchased Carna Biosciences
# EGFR(T790M) = molecular target: T27, EGFR(T790M) (Homo sapiens, UniProt P00533, T790M); experiment: mobility shift assay
# T27 construct: purchased Carna Biosciences
# RAK4 = molecular target: T28, RAK4 (Homo sapiens, UniProt Q9NWZ3); experiment: mobility shift assay
# T28 construct: purchased Carna Biosciences
# JNK3 = molecular target: T29, JNK3 (Homo sapiens, UniProt P53779); experiment: mobility shift assay
# T29 construct: purchased Carna Biosciences
# FGFR1(V561M) = molecular target: T30, FGFR1(V561M) (Homo sapiens, UniProt P11362, V561M); experiment: mobility shift assay
# T30 construct: purchased Carna Biosciences
# PKCε = molecular target: T31, PKCε (Homo sapiens, UniProt Q02156); experiment: mobility shift assay
# T31 construct: purchased Carna Biosciences
# PIK3α (PIK3CA/PIK3R1) = PIK3α (PIK3CA/PIK3R1) (Homo sapiens, UniProt P42336); experiment: IC50 by mobility shift assay; conditions: Table 2, mobility shift assay; read-out: IC50 (μM), Kinase PIK3CA/PIK3RI
# Experimental: The compounds obtained in Production Examples described above were each measured for its IC50 value for PIK3α (PIK3CA/PIK3R1) by mobility shift assay. The mobility shift assay is a method involving separating and quantifying a substrate and a phosphorylated substrate on the basis of mobility in a capillary. Each compound was mixed at various concentrations with an assay buffer (20 mM HEPES, 2 mM DTT, 25 μM sodium cholate, 75 mM NaCl, 20 μM cantharidine) together with 21 nM PI3K, 1,000 nM phosphatidyl inositol, 50 μM ATP, and 5 mM MgCl, and the mixture was subjected to a reaction at room temperature for 5 hours, followed by the mobility shift assay. The test was repeated twice. The enzymatic reaction was assessed on the basis of a product ratio (P/(P+S)) calculated from the height of a substrate peptide peak (S) and the height of a phosphorylated peptide peak (P). An inhibition rate was calculated from a signal obtained when each compound was added, with the average signal of a control containing all reaction components being defined as 0% inhibition and the average signal of a background (no enzyme added) being defined as 100% inhibition.
# The compounds produced in Production Examples described above were each assessed for its inhibitory activity against CDK7, PIM2, and PI3K by mobility shift assay. In addition, a combination showing the highest inhibitory activity against each kinase is indicated by italics.
# T1 sequence (P11309 whole entry): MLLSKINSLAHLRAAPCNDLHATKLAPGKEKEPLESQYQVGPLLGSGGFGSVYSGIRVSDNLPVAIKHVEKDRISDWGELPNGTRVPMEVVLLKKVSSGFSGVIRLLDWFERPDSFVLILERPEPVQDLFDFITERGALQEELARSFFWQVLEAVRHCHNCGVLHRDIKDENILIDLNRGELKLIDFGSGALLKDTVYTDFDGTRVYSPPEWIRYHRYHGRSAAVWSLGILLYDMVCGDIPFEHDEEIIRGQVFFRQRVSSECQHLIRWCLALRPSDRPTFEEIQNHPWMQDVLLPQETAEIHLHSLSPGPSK
# T27 sequence (P00533 25-1210 T790M): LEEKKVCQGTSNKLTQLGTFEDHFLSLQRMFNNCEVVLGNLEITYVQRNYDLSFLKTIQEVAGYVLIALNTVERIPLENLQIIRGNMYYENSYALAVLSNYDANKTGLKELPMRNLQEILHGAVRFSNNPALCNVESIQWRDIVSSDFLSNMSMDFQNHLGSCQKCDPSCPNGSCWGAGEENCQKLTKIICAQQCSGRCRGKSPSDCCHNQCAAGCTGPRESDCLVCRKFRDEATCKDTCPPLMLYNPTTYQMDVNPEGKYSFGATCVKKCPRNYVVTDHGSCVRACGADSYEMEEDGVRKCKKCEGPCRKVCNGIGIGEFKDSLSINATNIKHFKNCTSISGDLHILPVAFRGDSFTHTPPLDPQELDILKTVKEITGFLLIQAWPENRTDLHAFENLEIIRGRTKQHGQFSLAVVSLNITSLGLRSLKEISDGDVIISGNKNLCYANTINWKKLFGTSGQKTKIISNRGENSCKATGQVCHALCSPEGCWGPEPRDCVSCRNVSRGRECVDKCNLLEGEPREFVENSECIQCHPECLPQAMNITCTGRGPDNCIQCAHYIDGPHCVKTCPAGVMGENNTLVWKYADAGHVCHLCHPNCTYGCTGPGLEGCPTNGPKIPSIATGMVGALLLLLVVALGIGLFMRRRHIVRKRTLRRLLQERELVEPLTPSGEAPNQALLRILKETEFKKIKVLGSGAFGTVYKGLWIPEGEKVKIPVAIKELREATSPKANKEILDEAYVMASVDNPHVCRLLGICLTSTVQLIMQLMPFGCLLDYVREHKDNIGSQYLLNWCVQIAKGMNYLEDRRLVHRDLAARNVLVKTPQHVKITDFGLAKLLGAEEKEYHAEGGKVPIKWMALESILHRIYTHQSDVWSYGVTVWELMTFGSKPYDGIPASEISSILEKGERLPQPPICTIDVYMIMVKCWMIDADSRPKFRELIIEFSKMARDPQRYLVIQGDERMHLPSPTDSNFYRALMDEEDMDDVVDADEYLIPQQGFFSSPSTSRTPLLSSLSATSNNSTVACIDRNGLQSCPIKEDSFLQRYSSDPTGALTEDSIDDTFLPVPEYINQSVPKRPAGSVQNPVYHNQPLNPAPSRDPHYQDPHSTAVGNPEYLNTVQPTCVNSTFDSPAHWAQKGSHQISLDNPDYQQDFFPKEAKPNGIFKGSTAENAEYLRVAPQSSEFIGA
# Chain of PIK3α (PIK3CA/PIK3R1) (P42336 whole entry): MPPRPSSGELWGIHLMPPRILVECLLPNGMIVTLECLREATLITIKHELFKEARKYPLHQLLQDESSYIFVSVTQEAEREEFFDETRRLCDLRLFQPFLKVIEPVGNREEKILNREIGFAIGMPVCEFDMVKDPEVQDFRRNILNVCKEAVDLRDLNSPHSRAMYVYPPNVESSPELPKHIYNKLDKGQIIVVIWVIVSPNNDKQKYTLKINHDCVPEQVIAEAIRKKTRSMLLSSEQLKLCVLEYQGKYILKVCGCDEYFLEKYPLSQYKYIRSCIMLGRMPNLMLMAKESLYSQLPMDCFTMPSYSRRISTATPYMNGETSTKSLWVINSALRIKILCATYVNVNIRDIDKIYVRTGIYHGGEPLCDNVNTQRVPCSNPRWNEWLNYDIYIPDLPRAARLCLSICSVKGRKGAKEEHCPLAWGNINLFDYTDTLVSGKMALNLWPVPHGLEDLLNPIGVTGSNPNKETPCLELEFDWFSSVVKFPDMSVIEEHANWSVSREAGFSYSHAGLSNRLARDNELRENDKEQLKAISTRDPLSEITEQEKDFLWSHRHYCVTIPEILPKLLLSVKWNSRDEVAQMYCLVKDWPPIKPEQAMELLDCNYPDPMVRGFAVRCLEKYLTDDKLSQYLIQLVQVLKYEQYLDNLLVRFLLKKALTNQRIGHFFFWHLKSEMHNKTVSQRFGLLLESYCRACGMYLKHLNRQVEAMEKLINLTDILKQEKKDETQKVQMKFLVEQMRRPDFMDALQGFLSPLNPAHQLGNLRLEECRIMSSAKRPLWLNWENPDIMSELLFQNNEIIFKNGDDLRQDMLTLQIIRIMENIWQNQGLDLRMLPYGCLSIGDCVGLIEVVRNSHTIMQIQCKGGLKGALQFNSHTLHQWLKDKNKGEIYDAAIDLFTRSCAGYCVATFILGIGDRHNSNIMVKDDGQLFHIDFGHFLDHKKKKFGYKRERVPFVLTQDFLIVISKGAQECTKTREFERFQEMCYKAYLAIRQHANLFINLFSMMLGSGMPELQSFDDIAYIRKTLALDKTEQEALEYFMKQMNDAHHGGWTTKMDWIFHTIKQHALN
# Chain of PIK3α (PIK3CA/PIK3R1) (P27986 whole entry partner): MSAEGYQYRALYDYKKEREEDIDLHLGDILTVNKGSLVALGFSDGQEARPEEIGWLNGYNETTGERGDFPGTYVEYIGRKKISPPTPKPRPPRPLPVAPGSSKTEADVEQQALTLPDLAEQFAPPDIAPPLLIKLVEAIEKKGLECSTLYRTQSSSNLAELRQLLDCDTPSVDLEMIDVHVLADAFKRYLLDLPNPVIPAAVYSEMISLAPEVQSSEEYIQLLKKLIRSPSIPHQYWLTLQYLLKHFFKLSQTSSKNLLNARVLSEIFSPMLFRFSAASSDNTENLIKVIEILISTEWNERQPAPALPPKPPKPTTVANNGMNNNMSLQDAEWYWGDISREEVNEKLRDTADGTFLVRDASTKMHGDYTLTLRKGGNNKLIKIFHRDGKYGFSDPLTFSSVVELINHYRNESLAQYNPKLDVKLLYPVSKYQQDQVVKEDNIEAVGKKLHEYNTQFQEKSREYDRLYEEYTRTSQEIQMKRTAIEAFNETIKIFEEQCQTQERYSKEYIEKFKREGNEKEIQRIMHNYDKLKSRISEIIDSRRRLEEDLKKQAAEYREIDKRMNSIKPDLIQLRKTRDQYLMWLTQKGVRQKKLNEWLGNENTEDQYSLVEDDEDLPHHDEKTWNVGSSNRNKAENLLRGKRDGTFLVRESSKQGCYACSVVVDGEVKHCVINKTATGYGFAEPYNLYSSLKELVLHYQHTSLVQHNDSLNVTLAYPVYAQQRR
# T31 sequence (Q02156 whole entry): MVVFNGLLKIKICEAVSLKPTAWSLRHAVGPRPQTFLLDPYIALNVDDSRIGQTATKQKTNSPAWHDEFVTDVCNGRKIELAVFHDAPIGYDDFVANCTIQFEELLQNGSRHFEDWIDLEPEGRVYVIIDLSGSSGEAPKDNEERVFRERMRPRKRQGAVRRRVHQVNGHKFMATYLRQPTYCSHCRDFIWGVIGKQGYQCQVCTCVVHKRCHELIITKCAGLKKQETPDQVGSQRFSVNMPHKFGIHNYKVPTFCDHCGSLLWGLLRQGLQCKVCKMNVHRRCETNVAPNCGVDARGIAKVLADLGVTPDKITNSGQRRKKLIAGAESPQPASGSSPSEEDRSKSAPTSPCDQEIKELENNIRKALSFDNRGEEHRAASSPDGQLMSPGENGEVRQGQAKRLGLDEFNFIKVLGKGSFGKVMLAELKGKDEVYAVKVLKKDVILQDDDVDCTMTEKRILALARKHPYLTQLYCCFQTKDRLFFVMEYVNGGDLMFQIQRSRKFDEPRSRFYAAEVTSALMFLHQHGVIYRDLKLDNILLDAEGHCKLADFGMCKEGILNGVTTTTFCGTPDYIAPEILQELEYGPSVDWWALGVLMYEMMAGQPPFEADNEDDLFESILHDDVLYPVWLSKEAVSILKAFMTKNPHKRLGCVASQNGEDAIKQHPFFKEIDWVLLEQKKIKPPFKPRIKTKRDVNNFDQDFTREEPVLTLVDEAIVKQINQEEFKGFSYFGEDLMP
# T14 sequence (Q9HBH9 whole entry): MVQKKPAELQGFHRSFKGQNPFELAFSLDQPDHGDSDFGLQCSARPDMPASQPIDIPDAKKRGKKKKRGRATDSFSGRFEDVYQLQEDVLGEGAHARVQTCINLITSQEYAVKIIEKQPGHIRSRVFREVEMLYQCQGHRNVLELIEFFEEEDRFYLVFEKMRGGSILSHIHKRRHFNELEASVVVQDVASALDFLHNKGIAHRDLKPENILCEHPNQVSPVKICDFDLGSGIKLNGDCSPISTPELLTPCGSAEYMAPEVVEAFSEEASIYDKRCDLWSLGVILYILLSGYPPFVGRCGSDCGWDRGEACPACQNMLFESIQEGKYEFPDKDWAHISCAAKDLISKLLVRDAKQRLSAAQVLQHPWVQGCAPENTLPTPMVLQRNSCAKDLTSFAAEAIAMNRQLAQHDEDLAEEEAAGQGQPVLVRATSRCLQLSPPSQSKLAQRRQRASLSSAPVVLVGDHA
# T4 sequence (P49759 whole entry): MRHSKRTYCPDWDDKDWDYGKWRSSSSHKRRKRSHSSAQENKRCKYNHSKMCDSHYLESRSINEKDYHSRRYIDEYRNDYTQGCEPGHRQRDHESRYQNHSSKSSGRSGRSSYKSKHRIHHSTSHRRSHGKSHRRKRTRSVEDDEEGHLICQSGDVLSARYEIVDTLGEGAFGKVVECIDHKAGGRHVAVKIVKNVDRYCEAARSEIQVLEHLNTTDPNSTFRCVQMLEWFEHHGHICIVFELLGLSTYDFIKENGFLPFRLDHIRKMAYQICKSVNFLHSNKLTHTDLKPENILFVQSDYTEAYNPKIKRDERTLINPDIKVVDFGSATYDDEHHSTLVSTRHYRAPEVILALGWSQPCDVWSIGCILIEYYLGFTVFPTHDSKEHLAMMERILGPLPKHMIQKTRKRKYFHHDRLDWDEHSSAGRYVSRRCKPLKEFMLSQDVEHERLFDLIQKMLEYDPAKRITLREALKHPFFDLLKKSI
compound,measurement,setting,value
"C[C@@H]1CC[C@H]2C(C)(C)CCC[C@]2(C)c2c1oc1c(C=O)c(O)c(O)cc21 [LG-1, liphagal]",% Inhibition,MAP3K4_Cascade,62.9%
same,inhibition at 10 µM,PIM 1,50.3%
same,inhibition at 10 µM,CDK3/CycE1,40.1%
same,inhibition at 10 µM,PLK1,31.3%
same,inhibition at 10 µM,CLK1,30.1%
same,inhibition at 10 µM,HPK2,27%
same,inhibition at 10 µM,WNK2,20.7%
same,inhibition at 10 µM,CDK5/p25,17.8%
same,inhibition at 10 µM,MAP3K2_Cascade,16.8%
same,inhibition at 10 µM,MRCKα,16%
same,inhibition at 10 µM,IGF1R,8.7%
same,inhibition at 10 µM,RON,7.8%
same,inhibition at 10 µM,MST2,7.6%
same,inhibition at 10 µM,PDHK4,7.4%
same,inhibition at 10 µM,MNK2,5.9%
same,inhibition at 10 µM,MAPKAPK5,4.8%
same,inhibition at 10 µM,TSSK1,4.1%
same,inhibition at 10 µM,PKD2,2.8%
same,inhibition at 10 µM,FGFR4(V550E),2.4%
same,inhibition at 10 µM,FRK,1.4%
same,inhibition at 10 µM,YES,0.7%
same,inhibition at 10 µM,Erk5,0.6%
same,inhibition at 10 µM,ALK(G1202R),-0.3%
same,inhibition at 10 µM,ALK(R1275Q),-0.5%
same,inhibition at 10 µM,CaMK2α,-0.5%
same,% Inhibition,TRK1,−0.5%
same,inhibition at 10 µM,HER2,-1.6%
same,inhibition at 10 µM,MRCKβ,-1.9%
same,inhibition at 10 µM,EGFR(T790M),-2%
same,inhibition at 10 µM,RAK4,-2.8%
same,inhibition at 10 µM,JNK3,-5.8%
same,inhibition at 10 µM,FGFR1(V561M),-12.6%
same,inhibition at 10 µM,PKCε,-46.9%
same,IC50,PIK3α (PIK3CA/PIK3R1),4.12 µM
